ChEMBL document CHEMBL4651402, “Screening of ~5500 FDA-approved drugs and clinical candidates for anti-SARS-CoV-2 activity” (2021)

Tested on: SARS-CoV-2
Experiment: microbe, parasite or virus in culture
Settings: Severe acute respiratory syndrome coronavirus 2, Vero C1008, 48 h

SMILES	IC50 [µM]	IC50 (read-out: pIC50 (converted)) [µM]
COc1ccc2c3c1OC1C(O)CCC4C(C2)N(C)CCC341 (centres undefined)	> 20	> 20
NC1=NCC(c2ccc(Cl)cc2)O1 (centres undefined) [CLOMINOREX]	> 20	> 20
O=C(NCCCN1CCOCC1)c1ccc(Cl)cc1 [EPROBEMIDE]	> 20	> 20
O=c1[nH]cnc2c1ncn2[C@@H]1O[C@H](CO)[C@@H](O)[C@H]1O [INOSINE]	> 20	> 20
CC(C)(C)NCC(O)c1ccccc1Cl (centres undefined) [TULOBUTEROL]	> 20	> 20
CC1(C)CCC2(C)CCC3(C)C(=CCC4C5(C)CCC(O)C(C)(C)[C@@H]5CCC43C)C2C1 (some centres undefined)	> 20	> 20
CCN1CCC[C@H]1CNC(=O)c1c(OC)ccc(Br)c1OC [REMOXIPRIDE]	> 20	> 20
NS(=O)(=O)c1cc2c(cc1Cl)N=CNS2(=O)=O [CHLOROTHIAZIDE]	> 20	> 20
CC(C)C[C@H](NC(=O)CNC(=O)[C@H](Cc1ccc(O)cc1)NC(=O)[C@H](CO)NC(=O)[C@H](Cc1c[nH]c2ccccc12)NC(=O)[C@H](Cc1cnc[nH]1)NC(=O)[C@@H]1CCC(=O)N1)C(=O)N[C@@H](CCCNC(=N)N)C(=O)N1CCC[C@H]1C(=O)NCC(N)=O [GONADORELIN]	> 20	> 20
Cc1c(-c2cccnc2)n(CCCCCCCC(=O)O)c2ccccc12	> 20	> 20
N=C(N)c1ccc(C(=O)N[C@@H](Cc2ccc(O)cc2)C(=O)N2CCC(OCC(=O)O)CC2)cc1 [LAMIFIBAN]	> 20	> 20
CCCCCCCCCC(=O)O[C@H]1CC[C@H]2[C@@H]3CCC4=CC(=O)CC[C@@H]4[C@H]3CC[C@]12C [NANDROLONE DECANOATE]	> 20	> 20
COc1cc([C@@H]2c3cc4c(cc3[C@@H](O[C@@H]3O[C@@H]5CO[C@@H](c6cccs6)O[C@H]5[C@H](O)[C@H]3O)[C@H]3COC(=O)[C@H]23)OCO4)cc(OC)c1O [TENIPOSIDE]	> 20	> 20
CC/C=C/C/C=C/C/C=C/C/C=C/C/C=C/CCCC(=O)O	> 20	> 20
CC(C)(Sc1cc(C(C)(C)C)c(O)c(C(C)(C)C)c1)Sc1cc(C(C)(C)C)c(O)c(C(C)(C)C)c1 [PROBUCOL]	> 20	> 20
CCOC(=O)C1(c2ccccc2)CCN(CCc2ccc(N)cc2)CC1 [ANILERIDINE]	> 20	> 20
S=C(NC1CCCCC1)N1CCC(c2cnc[nH]2)CC1 [THIOPERAMIDE]	> 20	> 20
CCOC(=O)[C@H](CCc1ccccc1)N[C@H]1CCc2ccccc2N(CC(=O)O)C1=O [BENAZEPRIL]	> 20	> 20
O=C(O)C[C@@H]1CCc2c1[nH]c1ccc(OCc3ccc(C4CCCC4)c(C(F)(F)F)c3)cc21	> 20	> 20
CC12CCC3C(CCC4(O)CC(O)CCC34C=O)C1(O)CCC2C1=CC(=O)OC1 (centres undefined)	> 20	> 20
CC(=O)N1C[C@H](O)C[C@H]1C(=O)O [OXACEPROL]	> 20	> 20

SMILES	IC50 [µM]	IC50 (read-out: pIC50 (converted)) [µM]
CC(C)Cc1sc(N)nc1-c1ccc(P(=O)(O)O)o1 [MB-05032]	> 20	> 20
CC(C)CC1C(=O)N2CCCC2C2(O)OC(NC(=O)C3CC4c5cccc6[nH]cc(c56)CC4N(C)C3)(C(C)C)C(=O)N12 (centres undefined)	> 20	> 20
Nc1c2c(nc3ccccc13)CCCC2 [TACRINE]	> 20	> 20
CCC1(CC)C(=O)C=CNC1=O [PYRITHYLDIONE]	> 20	> 20
CC1(C)S[C@@H]2[C@H](NC(=O)[C@H](N)c3ccccc3)C(=O)N2[C@H]1C(=O)O [AMPICILLIN]	> 20	> 20
CC12C=CC(=O)C=C1CCC1C2C(O)CC2(C)C1CCC2(O)C(=O)COC(=O)CCCc1ccc(N(CCCl)CCCl)cc1 (centres undefined)	> 20	> 20
O=C1c2ccccc2-c2c1c1ccccc1c(=O)n2CCNCCO	> 20	> 20
Cc1ccc(-c2ncc(Cl)cc2-c2ccc(S(C)(=O)=O)cc2)cn1 [ETORICOXIB]	> 20	> 20
CCN(CC)CCOc1ccc2nc(N(C)C)sc2c1 [DIAMTHAZOLE]	> 20	> 20
CCCS(=O)(=O)N[C@H]1C[C@@H](N(C)c2ncnc3[nH]ccc23)C1 [ABROCITINIB]	> 20	> 20
CC(C)(C)c1cc2c(cc1Cl)C=C(C(=O)O)C(C(F)(F)F)O2 (centres undefined)	> 20	> 20
COc1cnc(NS(=O)(=O)c2ccc(N)cc2)nc1	> 20	> 20
CC[C@@H]1[C@H](F)C(=O)N[C@@H]1COc1nccc2cc(C(N)=O)c(OC)cc12 [ZIMLOVISERTIB]	> 20	> 20
COc1ccccc1OCC1CNC(=O)O1 (centres undefined) [MEPHENOXALONE]	> 20	> 20
CCCCCNC(=N)N/N=C/c1c[nH]c2ccc(OC)cc12 [TEGASEROD]	> 20	> 20
C=C(C)[C@@H]1[C@H]2OC(=O)[C@H]1[C@]1(O)C[C@H]3O[C@]34C(=O)O[C@H]2[C@]14C	> 20	> 20
Cc1cc(=O)oc2cc(O)c(O)cc12 [4-METHYLESCULETIN]	> 20	> 20
Nc1nc(Cl)nc2c1ncn2[C@@H]1C[C@H](O)[C@@H](CO)O1	> 20	> 20
O=c1[nH]c(=O)n(Cl)c(=O)n1Cl [TROCLOSENE]	> 20	> 20
CCN(CCO)CCn1c(Cc2ccccc2)nc2c1c(=O)n(C)c(=O)n2C [BAMIFYLLINE]	> 20	> 20
O=C(OCCN1CCOCC1)c1cccnc1Nc1cccc(C(F)(F)F)c1 [MORNIFLUMATE]	> 20	> 20

SMILES	IC50 [µM]	IC50 (read-out: pIC50 (converted)) [µM]
O=C1CN2Cc3c(ccc(Cl)c3Cl)N=C2N1 [ANAGRELIDE]	> 20	> 20
CC(C)c1c(CN(C)C(C)Cc2ccccc2)n(C)n(-c2ccccc2)c1=O (centres undefined) [FAMPROFAZONE]	> 20	> 20
COc1cc(C)c2c(Oc3cccc(C(F)(F)F)c3)c(OC)cc(NC(C)CCCN)c2n1 (centres undefined) [TAFENOQUINE]	> 20	> 20
C[C@@H](CC(C(N)=O)(c1ccccc1)c1ccccc1)N(C)C	> 20	> 20
Cn1cc(-c2ccncc2)c(-c2ccc(OCc3ccc4ccccc4n3)cc2)n1 [MARDEPODECT]	> 20	> 20
c1ccc2cc(COC3CCNCC3)ccc2c1 [LITOXETINE]	> 20	> 20
OC1CN(CCCOCCc2ccc3sccc3c2)C1 [T-817]	> 20	> 20
CO[C@]12C[C@@H](COC(=O)c3cncc(Br)c3)CN(C)[C@@H]1Cc1cn(C)c3cccc2c13 [NICERGOLINE]	> 20	> 20
CC(C)N1CCN(c2ccc(Nc3ncc4cc5n(c4n3)C3(CCCCC3)CNC5=O)nc2)CC1 [LEROCICLIB]	> 20	> 20
COc1cc2c(cc1OC)[C@@H]1C(=O)c3ccc4c(c3O[C@@H]1CO2)CC(C(C)C)O4 (some centres undefined) [DIHYDROROTENONE]	> 20	> 20
CC1(C)CN2C(=O)c3[nH]cnc3N(Cc3ccc(Cl)cc3)C2=N1	> 20	> 20
CCN(CC)CCOC(c1ccccc1)c1ccccc1	> 20	> 20
Nc1ccc(N)cc1	> 20	> 20
Cc1onc(-c2c(Cl)cccc2Cl)c1C(=O)N[C@@H]1C(=O)N2[C@@H]1SC(C)(C)[C@@H]2C(=O)O [DICLOXACILLIN]	> 20	> 20
O=C1OCCN1/N=C\c1ccc([N+](=O)[O-])o1	> 20	> 20
O=C(O)[C@H]1/C(=C/CO)O[C@@H]2CC(=O)N21 [CLAVULANIC ACID]	> 20	> 20
NC[C@H](O)c1ccc(O)c(O)c1 [NOREPINEPHRINE]	> 20	> 20
C=CC(=O)Nc1cccc(Oc2nc(Nc3ccc(N4CCN(C)CC4)c(F)c3)nc3[nH]ccc23)c1 [ABIVERTINIB]	> 20	> 20
CCCCCCCCCCCC(=O)O [DODECANOATE]	> 20	> 20
CCC(=O)c1ccc(OCC(O)CN2CCN(c3ccccc3)CC2)cc1 (centres undefined)	> 20	> 20
